Laboratory results from US9796711B2, “Substituted pyrazolo[3,4-b]pyridin-6-carboxylic acids and method of use” (AbbVie S.àr.l., priority 2015, dated 2017).

Experiments:
[1] = molecular target: T1, ΔF508-CFTR (Homo sapiens, UniProt P13569, DEL508-508); assay: CFTR cell surface levels using HRP-tagged ΔF508-CFTR expressing CFBE cells, in the presence of a co-corrector; type: cell-based
T1 construct: host or cells: CFBE41o-, doxycycline-inducible
Method in brief: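 Cells were seeded with 0.5 μg/mL doxycycline and held 68 h at 37 °C. Test compounds plus 3 μM co-corrector (final 0.1% DMSO) were then added for 20 h at 33 °C. Washed cells received HRP substrate, and luminescence was normalized between DMSO and 3 μM co-corrector controls.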

[2] = molecular target: T1, ΔF508-CFTR; assay: CFTR cell surface levels using HRP-tagged ΔF508-CFTR expressing CFBE cells, intrinsic corrector capacity; type: cell-based
Method in brief: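 Here the cells express ΔF508-CFTR with horseradish peroxidase inserted in extracellular loop 4, so only rescued channel at the surface gives luminescent signal. Compounds act on their own, 20 h at the reduced temperature of 33 °C; values are percent activity relative to DMSO and a 3 μM corrector.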

[3] = HRP-tagged ΔF508-CFTR expressing CFBE cells, in the presence of 3 μM co-corrector
[4] = HRP-tagged ΔF508-CFTR expressing CFBE cells, in the presence of 3 μM co-corrector, read-out: EC50
[5] = HRP-tagged ΔF508-CFTR expressing CFBE cells, intrinsic corrector capacity (no co-corrector), 33° C., 20 hours
[6] = HRP-tagged ΔF508-CFTR expressing CFBE cells, intrinsic corrector capacity (no co-corrector), 33° C., 20 hours, read-out: EC50
[7] = HRP-tagged ΔF508-CFTR CFBE41o- cells, compounds alone (intrinsic corrector capacity), 20 hours at 33° C., positive control 3 μM corrector
[8] = HRP-tagged ΔF508-CFTR CFBE41o- cells, compounds alone (intrinsic corrector capacity), 20 hours at 33° C., read-out: EC50

T1 sequence (P13569 with tags, fused parts or gaps DEL508-508): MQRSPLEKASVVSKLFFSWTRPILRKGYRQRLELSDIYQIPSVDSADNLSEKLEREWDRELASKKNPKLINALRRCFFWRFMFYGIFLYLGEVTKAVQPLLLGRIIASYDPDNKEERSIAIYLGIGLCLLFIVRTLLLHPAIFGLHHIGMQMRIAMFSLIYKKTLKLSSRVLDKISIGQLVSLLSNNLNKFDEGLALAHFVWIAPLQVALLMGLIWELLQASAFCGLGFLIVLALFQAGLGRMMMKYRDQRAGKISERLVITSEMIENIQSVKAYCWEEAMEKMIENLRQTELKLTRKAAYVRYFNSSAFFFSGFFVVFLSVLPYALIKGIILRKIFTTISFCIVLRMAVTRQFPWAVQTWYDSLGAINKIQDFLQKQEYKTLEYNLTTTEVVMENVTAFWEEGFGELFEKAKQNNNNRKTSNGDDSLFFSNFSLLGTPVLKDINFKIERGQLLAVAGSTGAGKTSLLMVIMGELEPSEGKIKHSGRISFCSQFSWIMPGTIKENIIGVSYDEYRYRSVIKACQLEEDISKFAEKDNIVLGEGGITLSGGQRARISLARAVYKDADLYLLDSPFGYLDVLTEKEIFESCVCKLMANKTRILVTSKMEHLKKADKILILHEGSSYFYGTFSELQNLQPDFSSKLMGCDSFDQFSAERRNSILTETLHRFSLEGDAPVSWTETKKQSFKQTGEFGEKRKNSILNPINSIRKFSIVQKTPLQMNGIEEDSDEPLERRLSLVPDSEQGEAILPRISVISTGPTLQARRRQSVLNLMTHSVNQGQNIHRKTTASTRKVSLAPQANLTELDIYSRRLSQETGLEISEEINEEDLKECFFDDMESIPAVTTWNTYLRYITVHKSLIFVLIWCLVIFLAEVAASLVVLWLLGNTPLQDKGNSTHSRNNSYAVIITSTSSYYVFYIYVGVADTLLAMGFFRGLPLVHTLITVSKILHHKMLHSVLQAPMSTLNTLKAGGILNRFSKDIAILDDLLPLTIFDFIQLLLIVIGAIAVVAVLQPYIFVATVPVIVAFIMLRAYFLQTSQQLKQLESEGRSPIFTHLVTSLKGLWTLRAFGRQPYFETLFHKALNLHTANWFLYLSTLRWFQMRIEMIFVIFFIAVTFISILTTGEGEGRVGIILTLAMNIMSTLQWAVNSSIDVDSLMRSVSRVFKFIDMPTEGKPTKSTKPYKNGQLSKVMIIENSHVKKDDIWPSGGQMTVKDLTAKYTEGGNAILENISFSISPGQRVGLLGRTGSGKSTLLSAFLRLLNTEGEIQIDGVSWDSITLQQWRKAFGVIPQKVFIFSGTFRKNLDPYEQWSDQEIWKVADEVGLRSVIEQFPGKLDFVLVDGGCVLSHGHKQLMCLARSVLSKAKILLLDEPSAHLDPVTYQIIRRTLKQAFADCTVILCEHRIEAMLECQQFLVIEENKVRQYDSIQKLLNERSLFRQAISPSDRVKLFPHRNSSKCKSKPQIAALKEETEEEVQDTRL

Row | Structure (SMILES) | % Activation [1, 3] [%] | EC50 [1, 4] [nM] | % Activation [2, 5] [%] | EC50 [2, 6] [nM] | % Activation [2, 7] [%] | EC50 [2, 8] [nM] | EC50 [1] [nM] | EC50 [2] [nM]
1 | CC(C)OC(=O)N1CC[C@@H]2CN(c3cc(C(=O)O)nc4c3c(C3CCC3)nn4-c3ccccc3)CC[C@@H]21 (racemic) [compound 610, rac-3-cyclobutyl-1-phenyl-4-[(3aR,7aS)-1-{[(propan-2-yl)oxy]carbonyl}octahydro-5H-pyrrolo[3,2-c]pyridin-5-yl]-1H-pyrazolo[3,4-b]pyridine-6-carboxylic acid] | 539.05 | 44.8 | 262.4 | 123 | – | – | – | –
2 | CC(C)c1nn(-c2cccc(N3CCOCC3)c2)c2nc(C(=O)O)cc(-c3ccc(N(C)C)nc3)c12 [compound 89, 4-[6-(dimethylamino)pyridin-3-yl]-1-[3-(morpholin-4-yl)phenyl]-3-(propan-2-yl)-1H-pyrazolo[3,4-b]pyridine-6-carboxylic acid] | 482.05 | 1240 | – | – | 310.15 | 2530 | – | –
3 | Cc1nn(-c2ccccc2)c2nc(C(=O)O)cc(N3CCCCC3)c12 [compound 123, 3-methyl-1-phenyl-4-(piperidin-1-yl)-1H-pyrazolo[3,4-b]pyridine-6-carboxylic acid] | 267.95 | 2690 | – | – | 107.95 | 3280 | – | –
4 | CC(C)c1nn(-c2cccc(N3CCC3)c2)c2nc(C(=O)O)cc(-c3ccc(N4CCOCC4)cc3)c12 [compound 151, 1-[3-(azetidin-1-yl)phenyl]-4-[4-(morpholin-4-yl)phenyl]-3-(propan-2-yl)-1H-pyrazolo[3,4-b]pyridine-6-carboxylic acid] | 562.6 | 644 | – | – | 322.03 | 354 | – | –
5 | CC(C)c1nn(C2CCCCC2)c2nc(C(=O)O)cc(-c3ccc(N(C)C4CCOCC4)nc3)c12 [compound 169, 1-cyclohexyl-4-{6-[methyl(oxan-4-yl)amino]pyridin-3-yl}-3-(propan-2-yl)-1H-pyrazolo[3,4-b]pyridine-6-carboxylic acid] | 436.5 | 302 | – | – | 217.88 | 448 | – | –
6 | Cc1cccc(-n2nc(C(C)C)c3c(N4CCC(C#N)CC4)cc(C(=O)O)nc32)c1 [compound 191, 4-(4-cyanopiperidin-1-yl)-1-(3-methylphenyl)-3-(propan-2-yl)-1H-pyrazolo[3,4-b]pyridine-6-carboxylic acid] | 375.1 | 481 | – | – | 208.12 | 998 | – | –
7 | COC1CCN(c2cc(C(=O)O)nc3c2c(C(C)C)nn3-c2cccc(C)c2)CC1 [compound 192, 4-(4-methoxypiperidin-1-yl)-1-(3-methylphenyl)-3-(propan-2-yl)-1H-pyrazolo[3,4-b]pyridine-6-carboxylic acid] | 439.45 | 274 | – | – | 276.92 | 424 | – | –
8 | CC(C)c1nn(-c2ccnc(N3CCOCC3)c2)c2nc(C(=O)O)cc(-c3ccc(N4CCOCC4)cc3)c12 [compound 201, 4-[4-(morpholin-4-yl)phenyl]-1-[2-(morpholin-4-yl)pyridin-4-yl]-3-(propan-2-yl)-1H-pyrazolo[3,4-b]pyridine-6-carboxylic acid] | 439.85 | 288 | – | – | 251.3 | 596 | – | –
9 | CC(C)c1nn(-c2cccc(N3CCOCC3)c2)c2nc(C(=O)O)cc(-c3cnc(N4CCC(C#N)CC4)nc3)c12 [compound 204, 4-[2-(4-cyanopiperidin-1-yl)pyrimidin-5-yl]-1-[3-(morpholin-4-yl)phenyl]-3-(propan-2-yl)-1H-pyrazolo[3,4-b]pyridine-6-carboxylic acid] | 589.7 | 844 | – | – | 402.1 | 1110 | – | –
10 | CO[C@H]1CCC[C@@H](n2nc(C(C)C)c3c(-c4ccc(N5CCOCC5)cc4)cc(C(=O)O)nc32)C1 [compound 205, 1-[(1R,3S)-3-methoxycyclohexyl]-4-[4-(morpholin-4-yl)phenyl]-3-(propan-2-yl)-1H-pyrazolo[3,4-b]pyridine-6-carboxylic acid] | 261.5 | 819 | – | – | 109 | 1110 | – | –
11 | Cc1cccc(-n2nc(C(C)C)c3c(N4CCC(CO)CC4)cc(C(=O)O)nc32)c1 [compound 213, 4-[4-(hydroxymethyl)piperidin-1-yl]-1-(3-methylphenyl)-3-(propan-2-yl)-1H-pyrazolo[3,4-b]pyridine-6-carboxylic acid] | 456.97 | 382 | – | – | 247.33 | 679 | – | –
12 | N#CC1CCN(c2ccc(-c3cc(C(=O)O)nc4c3c(C3CCC3)nn4C3CCCCC3)cn2)CC1 [compound 220, 4-[6-(4-cyanopiperidin-1-yl)pyridin-3-yl]-3-cyclobutyl-1-cyclohexyl-1H-pyrazolo[3,4-b]pyridine-6-carboxylic acid] | 470.77 | 369 | – | – | 245.37 | 786 | – | –
13 | CC(C)c1nn(-c2cccc(N3CCCC3)c2)c2nc(C(=O)O)cc(-c3ccc(N4CCC(C#N)CC4)nc3)c12 [compound 222, 4-[6-(4-cyanopiperidin-1-yl)pyridin-3-yl]-3-(propan-2-yl)-1-[3-(pyrrolidin-1-yl)phenyl]-1H-pyrazolo[3,4-b]pyridine-6-carboxylic acid] | 612.47 | 268 | – | – | 429.93 | 433 | – | –
14 | COCC1CCN(c2cc(C(=O)O)nc3c2c(C(C)C)nn3-c2cccc(C)c2)CC1 [compound 227, 4-[4-(methoxymethyl)piperidin-1-yl]-1-(3-methylphenyl)-3-(propan-2-yl)-1H-pyrazolo[3,4-b]pyridine-6-carboxylic acid] | 452.6 | 340 | – | – | 305.45 | 666 | – | –
15 | COCCC1CCN(c2cc(C(=O)O)nc3c2c(C(C)C)nn3-c2cccc(C)c2)CC1 [compound 228, 4-[4-(2-methoxyethyl)piperidin-1-yl]-1-(3-methylphenyl)-3-(propan-2-yl)-1H-pyrazolo[3,4-b]pyridine-6-carboxylic acid] | 475.1 | 397 | – | – | 297.15 | 680 | – | –
16 | CC(C)c1nn(-c2cccc(N3CCOCC3)n2)c2nc(C(=O)O)cc(-c3ccc(N4CCOCC4)cc3)c12 [compound 244, 4-[4-(morpholin-4-yl)phenyl]-1-[6-(morpholin-4-yl)pyridin-2-yl]-3-(propan-2-yl)-1H-pyrazolo[3,4-b]pyridine-6-carboxylic acid] | 514.48 | 458 | – | – | 320.17 | 473 | – | –
17 | CC(C)c1nn(-c2cc(F)cc(F)c2)c2nc(C(=O)O)cc(-c3ccc(N4CCOCC4)cc3)c12 [compound 268, 1-(3,5-difluorophenyl)-4-[4-(morpholin-4-yl)phenyl]-3-(propan-2-yl)-1H-pyrazolo[3,4-b]pyridine-6-carboxylic acid] | 425.68 | 394 | – | – | 251.82 | 616 | – | –
18 | CN(C)C[C@@H](F)C1CCN(c2cc(C(=O)O)nc3c2c(C2CCC2)nn3-c2ccccc2)CC1 [compound 456, 3-cyclobutyl-4-{4-[(1S)-2-(dimethylamino)-1-fluoroethyl]piperidin-1-yl}-1-phenyl-1H-pyrazolo[3,4-b]pyridine-6-carboxylic acid] | 414.5 | 335 | 253.65 | 845 | – | – | – | –
19 | CCOC(=O)N1CCN(c2cc(C(=O)O)nc3c2c(C2CCC2)nn3-c2ccccc2)CC1 [compound 539, 3-cyclobutyl-4-[4-(ethoxycarbonyl)piperazin-1-yl]-1-phenyl-1H-pyrazolo[3,4-b]pyridine-6-carboxylic acid] | 564.8 | 198 | 366.3 | 370 | – | – | – | –
20 | O=C(O)c1cc(N2CCC(CN3CCCC3)CC2)c2c(C3CCC3)nn(-c3ccccc3)c2n1 [compound 557, 3-cyclobutyl-1-phenyl-4-{4-[(pyrrolidin-1-yl)methyl]piperidin-1-yl}-1H-pyrazolo[3,4-b]pyridine-6-carboxylic acid] | 418.2 | 200 | 221.7 | 444 | – | – | – | –
21 | O=C(O)c1cc(N2CCC(N3CCOCC3)CC2)c2c(C3CCC3)nn(-c3ccccc3)c2n1 [compound 560, 3-cyclobutyl-4-[4-(morpholin-4-yl)piperidin-1-yl]-1-phenyl-1H-pyrazolo[3,4-b]pyridine-6-carboxylic acid] | 437.33 | – | 265.05 | – | – | – | 171 | 393
22 | O=C(O)c1cc(N2CCC(CCN3CCCC3)CC2)c2c(C3CCC3)nn(-c3ccccc3)c2n1 [compound 574, 3-cyclobutyl-1-phenyl-4-{4-[2-(pyrrolidin-1-yl)ethyl]piperidin-1-yl}-1H-pyrazolo[3,4-b]pyridine-6-carboxylic acid] | 469.5 | 190 | 294 | 479 | – | – | – | –
